Test results: article PMC4210147, “Sequence-Specific Dimerization of a Transmembrane Helix in Amphipol A8-35” (PLoS ONE, 2014)

Key:
GpA TM helix dimer = conditions: ref [24], listed as GpA dimer; cited from earlier work
Source text: Thermal denaturation of MPs often leads to irreversible aggregation of the MP, and guanidine hydrochloride and urea, which are frequently used in unfolding studies involving soluble proteins, do typically not denature the TM regions of MPs. This is why the thermodynamic stability of integral MPs within membrane-mimetic systems is often assessed by titrating increasing concentrations of the anionic detergent SDS to MPs dissolved in a mild detergent, such as DDM [24], [40]-[44]. SDS is able to form mixed micelles with other detergents typically used for MP solubilization. […] This indicates a strong destabilizati ...

human GpA TM domain [1] = molecular target: T1, human GpA TM domain (Homo sapiens, UniProt P02724); experiment: FRET at different acceptor mole ratios, stoichiometry of GpA TM domain association; assay type: binding; conditions: constant total peptide, linear dependence, n = 2
T1 construct: purchased Peptide Specialty Laboratories, Heidelberg, Germany; host or cells: chemical synthesis (custom peptide)
T1 sequence (P02724 88-120 limits assumed) 1: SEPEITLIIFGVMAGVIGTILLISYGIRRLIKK
T1 sequence (P02724 88-120 limits assumed) 2: T1 sequence (P02724 88-120 limits assumed) 1
Procedure: […] Concentrations of the peptide stock solutions were determined from absorbance measurements on a Perkin Elmer Lambda 35 UV/VIS spectrophotometer. […] Peptides dissolved in TFE and A8-35 dissolved in ethanol were mixed, and organic solvents were removed under a gentle stream of nitrogen gas. Residual solvent traces were removed by vacuum desiccation overnight. The dried peptide/polymer film was then hydrated in 10 mM HEPES buffer (pH 7.4) containing 150 mM NaCl.
(§1) After at least 2 h of incubation at 37°C and 10 min of centrifugation at 16,000 g, steady-state fluorescence measurements were performed with the supernatant at 25°C on a Horiba Fluoromax 4 system with both excitation and emission slits at 3 nm. The excitation wavelength was set at 439 nm, and emission spectra were recorded from 480 to 650 nm. For FRET measurements with SDS, several concentrations of SDS, both below and above the CMC determined for the given buffer conditions, were used, and hydrated samples were incubated overnight.
Energy transfer E was calculated using the donor fluorescence intensities at 525 nm in presence and absence of acceptor according to [drawing 1] (1)
Besides formation of GpA dimers, the recorded energy transfer might, in principle, also originate from formation of higher-ordered oligomeric structures, such as trimers or tetramers, or even from unspecific peptide aggregation. […]

human GpA TM domain [2] = molecular target: T1, human GpA TM domain; experiment: Reversibility of SDS-mediated GpA dimer dissociation, FRET after dilution of SDS; assay type: binding; conditions: n = 3
Procedure: For Förster resonance energy transfer (FRET) measurements, equal concentrations of FL- and TAMRA-labeled GpA TM domains were used. Concentrations of the peptide stock solutions were determined from absorbance measurements on a Perkin Elmer Lambda 35 UV/VIS spectrophotometer. In all experiments, we used 0.25 µM for each of the two labeled GpA peptides. Peptides dissolved in TFE and A8-35 dissolved in ethanol were mixed, and organic solvents were removed under a gentle stream of nitrogen gas. Residual solvent traces were removed by vacuum desiccation overnight. The dried peptide/polymer film was then hydrated in 10 mM HEPES buffer (pH 7.4) containing 150 mM NaCl.
as §1, with “overnight. […]” for “overnight.”

CC[C@H](C)[C@H](NC(=O)CNC(=O)[C@H](Cc1ccc(O)cc1)NC(=O)[C@H](CO)NC(=O)[C@@H](NC(=O)[C@H](CC(C)C)NC(=O)[C@H](CC(C)C)NC(=O)[C@@H](NC(=O)[C@@H](NC(=O)CNC(=O)[C@@H](NC(=O)[C@@H](NC(=O)CNC(=O)[C@H](C)NC(=O)[C@H](CCSC)NC(=O)[C@@H](NC(=O)CNC(=O)[C@H](Cc1ccccc1)NC(=O)[C@@H](NC(=O)[C@@H](NC(=O)[C@H](CC(C)C)NC(=O)[C@@H](NC(=O)[C@@H](NC(=O)[C@H](CCC(=O)O)NC(=O)[C@@H]1CCCN1C(=O)[C@H](CCC(=O)O)NC(=O)[C@@H](N)CO)[C@@H](C)CC)[C@@H](C)O)[C@@H](C)CC)[C@@H](C)CC)C(C)C)C(C)C)[C@@H](C)CC)[C@@H](C)O)[C@@H](C)CC)[C@@H](C)CC)C(=O)N[C@@H](CCCNC(=N)N)C(=O)N[C@@H](CCCNC(=N)N)C(=O)N[C@@H](CC(C)C)C(=O)N[C@H](C(=O)N[C@@H](CCCCN)C(=O)N[C@@H](CCCCN)C(=O)O)[C@@H](C)CC [GpA TM domain]
dissociation of GpA dimer in mixed DDM/SDS micelles (GpA TM helix dimer): completely unfolded
stoichiometry of association (energy transfer vs acceptor mole fraction) (human GpA TM domain [1]; 5 µM A8-35): exclusive dimer formation
stoichiometry of association (energy transfer vs acceptor mole fraction) (human GpA TM domain [1]; 50 µM A8-35): exclusive dimer formation
reversibility of dissociation and association of GpA TM helix (human GpA TM domain [2]; 2 mM SDS diluted to 0.4 mM SDS, constant 20 µM A8-35 and peptide): fully reversible
fraction dimer after dilution from higher SDS concentration (human GpA TM domain [2]; 2 mM SDS sample diluted to 0.4 mM SDS, 20 µM A8-35): comparable to that observed at 0.4 mM SDS
